IC50 and hepatic glucose production data for 16 compounds are collected here from patent US8318941B2, “Pyridone/hydroxypyridine 11-beta hydroxysteroid dehydrogenase type I inhibitors” (Bristol-Myers Squibb Company, priority 2006, dated 2012).

Like-named read-outs stand apart in the source and are kept apart here. Bounds are passed on as bounds.

For experiment [1], the target named is T1, 11beta-HSD1 (Homo sapiens, UniProt P28845). Description: In vitro inhibition of recombinant human 11beta-HSD1 (microsomal Scintillation Proximity Assay). The experiment is classed as biochemical. Set-up: made in house; microsomal fraction used as enzyme source. As to conditions: microsomes from HEK 293 EBNA cells, 250 nM [3H]-cortisone, 500 μM NADPH, pH 6.5, room temperature. As to the method:
The in vitro inhibition of recombinant human 11beta-HSD1 was determined as follows.
Cells were grown in DMEM (high glucose) containing MEM non-essential amino acids, L-glutamine, hygromycine B (200 ug/ml), and G418(200 ug/ml). The cell pellets were homogenized, and the microsomal fraction was obtained by differential centrifugation. 11beta-HSD1 over expressed microsomes were used as the enzyme source for the Scintillation Proximity Assay (SPA). […] The reaction was terminated with the addition of 1 mM 18β-glycerrhentic acid. SPA reagent mixture (YSi anti-rabbit IgG, anti-cortisol antibody in 50 mM Tris, pH 8.0 containing 1% CHAPS and 1% glycerol) was added and the reaction was further incubated at room temperature over night and counted in TopCount. […]

For experiment [2], the target named is T1, 11beta-HSD1. More on the design: host or cells: patients (liver), in vivo. As to conditions: patients with type 2 diabetes, seven day treatment, versus placebo; cited from earlier work.

T1 sequence (P28845 whole entry): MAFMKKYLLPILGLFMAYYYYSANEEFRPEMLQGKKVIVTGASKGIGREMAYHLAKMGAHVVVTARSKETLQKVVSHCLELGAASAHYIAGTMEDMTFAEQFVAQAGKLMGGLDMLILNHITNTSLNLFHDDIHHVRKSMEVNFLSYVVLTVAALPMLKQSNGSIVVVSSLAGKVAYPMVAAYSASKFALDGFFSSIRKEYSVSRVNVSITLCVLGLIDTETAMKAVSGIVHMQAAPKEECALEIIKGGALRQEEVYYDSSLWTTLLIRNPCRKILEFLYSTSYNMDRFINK

Turning to `N#Cc1ccncc1CSc1nc(O)c(C#N)c2ccc(F)cc12` [Example 170], the IC50 in experiment [1] was found to be 0.00149 µM.

On to `NC(=O)c1c(O)nc(SCc2ccccc2Cl)c2c1CCCC2` [Example 3, 1-(2-Chlorobenzylthio)-3-hydroxy-5,6,7,8-tetrahydroisoquinoline-4-carboxamide], for which the IC50 in experiment [1] is more than 10 µM.

As to `O=S(=O)(Cc1cccc(Cl)c1)c1nc(O)c(Cl)c2ccccc12` [Example 118], the IC50 in experiment [1] amounted to 0.53 µM.

Take `N#Cc1ccccc1CSc1nc(O)c(Cl)c2ccc(Cl)cc12` [Example 132]: the IC50 in experiment [1] came to 0.00226 µM.

With `N#Cc1ccccc1CSc1nc(O)c(Cl)c2ccccc12` [Example 130], the IC50 in experiment [1] was determined as 0.0027 µM.

Take `N#Cc1ccccc1-c1c(O)nc(SCc2ccccc2Cl)c2c1CCCC2` [Example 292]: the IC50 in experiment [1] came out at 0.288 µM.

`N#Cc1c(O)nc(SCc2cccnc2Cl)c2c1CCCC2` [Example 32]: the IC50 in experiment [1] stood at 0.00273 µM.

`Oc1cc2c(c(SCc3ccccc3Cl)n1)N1CCC2CC1` [Example 29]: in experiment [1], the IC50 was more than 10 µM.

Consider “4,7-Dichloro-1-(2-chlorobenzylthio)isoquinolin-3-ol [Example 109]”, for which the IC50 in experiment [1] (read-out: IC50 (concentration of compound required for 50% inhibition of cortisol formation)) worked out at 0.671 µM.

As for `N#Cc1c(O)nc(SCc2cc(F)ccc2F)c2cc(F)ccc12` [Example 175], the IC50 in experiment [1] stood at 0.00258 µM.

As for `N#Cc1c(O)nc(SCc2cnccc2Cl)c2cc(F)ccc12` [Example 164], the IC50 in experiment [1] worked out at 0.00273 µM.

In the case of `Oc1nc(SCc2cccc(Cl)c2)c2ccccc2c1Cl` [Example 115], the IC50 in experiment [1] was found to be 0.78 µM.

With `N#Cc1cccc(Cl)c1CSc1nc(O)c(C#N)c2ccc(F)cc12` [Example 181], in experiment [1], the IC50 was 0.003 µM.

Take `CC1(C)[C@@H](OC(=O)CCC(=O)O)CC[C@]2(C)[C@H]3C(=O)C=C4[C@@H]5C[C@@](C)(C(=O)O)CC[C@]5(C)CC[C@@]4(C)[C@]3(C)CC[C@@H]12` [carbenoxolone]: the hepatic glucose production entry in experiment [2] is on record as “decrease in hepatic glucose production”.

Take `O=C(O)c1c(O)nc(SCc2ccccc2Cl)c2c1CCCC2` [Example 6, 1-(2-Chlorobenzylthio)-3-hydroxy-5,6,7,8-tetrahydroisoquinoline-4-carboxylic acid]: the IC50 in experiment [1] stood at 0.47 µM.

Regarding `N#Cc1c(O)nc(SCc2ccccc2Cl)c2c1CCNC2` [Example 35], in experiment [1], the IC50 turned out to be 0.46 µM.
